≈ marks a conversion by molar mass, not a printed value. Calls of active or inactive are those of the source. No cut-off for these calls is given here.
Key:
[1] = system: Lichtheimia corymbifera; test: Antifungal activity against Absidia corymbifera 272 after 24 to 48 hrs by microdilution broth method; format: functional, organism-based
[2] = system: Staphylococcus aureus; test: Antibacterial activity against gram-positive Staphylococcus aureus CCM 4516/08 after 24 hrs by microdilution broth method; format: functional; conditions: CCM 4516/08, 24 h
[3] = system: Mycobacterium tuberculosis; test: Antimycobacterial activity against Mycobacterium tuberculosis H37Rv 331/88 after 21 days by micromethod; format: functional; conditions: H37Rv 331/88, 504 h
[4] = system: Mycobacterium kansasii; test: Antimycobacterial activity against Mycobacterium kansasii 6509/80 after 21 days by micromethod; format: functional; conditions: 6509/80, 504 h
[5] = system: Pichia kudriavzevii; test: Antifungal activity against Candida krusei E28 after 24 hrs by microdilution broth method; format: functional; conditions: E28, 24 h
[6] = system: Trichophyton mentagrophytes; test: Antifungal activity against Trichophyton mentagrophytes 445 after 72 hrs by microdilution broth method; format: functional; conditions: Trichophyton mentagrophytes, 445, 72 h
[7] = system: Nakaseomyces glabratus; test: Antifungal activity against Candida glabrata 20/I after 24 hrs by microdilution broth method; format: functional
[8] = system: Staphylococcus aureus; test: Antibacterial activity against gram-positive methicillin-resistant Staphylococcus aureus H 5996/08 after 24 hrs by microdilution broth method; format: functional; conditions: H 5996/08, 24 h
[9] = system: Pichia kudriavzevii; test: Antifungal activity against Candida krusei E28 after 48 hrs by microdilution broth method; format: functional; conditions: E28, 48 h
[10] = system: Klebsiella pneumoniae; test: Antibacterial activity against extended spectrum beta-lactamase-positive Klebsiella pneumoniae J 14368/08 after 24 to 48 hrs by microdilution broth method; format: functional, organism-based
[11] = system: Mycobacterium kansasii; test: Antimycobacterial activity against Mycobacterium kansasii 6509/96 after 14 days by micromethod; format: functional; conditions: 6509/96, 336 h
[12] = system: Enterococcus faecalis; test: Antibacterial activity against gram-positive Enterococcus faecalis J 14365/08 after 24 hrs by microdilution broth method; format: functional; conditions: J 14365/08, 24 h
[13] = system: Staphylococcus epidermidis; test: Antibacterial activity against gram-positive Staphylococcus epidermidis H 6966/08 after 24 hrs by microdilution broth method; format: functional; conditions: H 6966/08, 24 h
[14] = system: Candida tropicalis; test: Antifungal activity against Candida tropicalis 156 after 48 hrs by microdilution broth method; format: functional; conditions: Candida tropicalis, 156, 48 h
[15] = system: Mycobacterium kansasii; test: Antimycobacterial activity against Mycobacterium kansasii 6509/96 after 7 days by micromethod; format: functional; conditions: 6509/96, 168 h
[16] = system: Staphylococcus aureus; test: Antibacterial activity against gram-positive methicillin-resistant Staphylococcus aureus H 5996/08 after 48 hrs by microdilution broth method; format: functional; conditions: H 5996/08, 48 h
[17] = system: Mycobacterium avium; test: Antimycobacterial activity against Mycobacterium avium 330/88 after 21 days by micromethod; format: functional; conditions: 330/88, 504 h
[18] = system: Mycobacterium kansasii; test: Antimycobacterial activity against Mycobacterium kansasii 6509/96 after 21 days by micromethod; format: functional; conditions: 6509/96, 504 h
[19] = system: Mycobacterium avium; test: Antimycobacterial activity against Mycobacterium avium 330/88 after 14 days by micromethod; format: functional; conditions: 330/88, 336 h
[20] = system: Klebsiella pneumoniae; test: Antibacterial activity against gram-negative Klebsiella pneumoniae D 11750/08 after 24 to 48 hrs by microdilution broth method; format: functional, organism-based
[21] = system: Candida albicans; test: Antifungal activity against Candida albicans ATCC 44859 after 24 to 48 hrs by microdilution broth method; format: functional, organism-based
[22] = system: Aspergillus fumigatus; test: Antifungal activity against Aspergillus fumigatus 231 after 24 to 48 hrs by microdilution broth method; format: functional, organism-based
[23] = system: Mycobacterium kansasii; test: Antimycobacterial activity against Mycobacterium kansasii 6509/80 after 14 days by micromethod; format: functional; conditions: 6509/80, 336 h
[24] = system: Mycobacterium tuberculosis; test: Antimycobacterial activity against Mycobacterium tuberculosis H37Rv 331/88 after 14 days by micromethod; format: functional; conditions: H37Rv 331/88, 336 h
[25] = system: Candida tropicalis; test: Antifungal activity against Candida tropicalis 156 after 24 hrs by microdilution broth method; format: functional; conditions: Candida tropicalis, 156, 24 h
[26] = system: Staphylococcus aureus; test: Antibacterial activity against gram-positive Staphylococcus aureus CCM 4516/08 after 48 hrs by microdilution broth method; format: functional; conditions: CCM 4516/08, 48 h
[27] = system: Staphylococcus epidermidis; test: Antibacterial activity against gram-positive Staphylococcus epidermidis H 6966/08 after 48 hrs by microdilution broth method; format: functional; conditions: H 6966/08, 48 h
[28] = system: Trichosporon asahii; test: Antifungal activity against Trichosporon asahii 1188 after 24 to 48 hrs by microdilution broth method; format: functional, organism-based
[29] = system: Trichophyton mentagrophytes; test: Antifungal activity against Trichophyton mentagrophytes 445 after 120 hrs by microdilution broth method; format: functional; conditions: Trichophyton mentagrophytes, 445, 120 h
[30] = system: Mycobacterium kansasii; test: Antimycobacterial activity against Mycobacterium kansasii 6509/80 after 7 days by micromethod; format: functional; conditions: 6509/80, 168 h
[31] = system: Escherichia coli; test: Antibacterial activity against gram-negative Escherichia coli CCM 4517 after 48 hrs by microdilution broth method; format: functional; conditions: CCM 4517, 48 h
[32] = system: Pseudomonas aeruginosa; test: Antibacterial activity against gram-negative Pseudomonas aeruginosa CCM 1961 after 48 hrs by microdilution broth method; format: functional, organism-based
[33] = system: Enterococcus faecalis; test: Antibacterial activity against gram-positive Enterococcus faecalis J 14365/08 after 48 hrs by microdilution broth method; format: functional; conditions: J 14365/08, 48 h
[34] = system: Nakaseomyces glabratus; test: Antifungal activity against Candida glabrata 20/I after 48 hrs by microdilution broth method; format: functional
[35] = system: Escherichia coli; test: Antibacterial activity against gram-negative Escherichia coli CCM 4517 after 24 hrs by microdilution broth method; format: functional; conditions: CCM 4517, 24 h
[36] = Solubility of the compound in Mueller-Hinton broth; format: physicochemical
[37] = system: HepG2; test: Cytostatic activity against human HepG2 cells incubated overnight followed by compound wash measured after 72 hrs by MTT assay; format: ADME, cell-based; conditions: HepG2, 72 h
[38] = system: MONO-MAC-6; test: Cytostatic activity against human MONO-MAC-6 cells incubated overnight followed by compound wash measured after 72 hrs by MTT assay; format: ADME, cell-based; conditions: MONO-MAC-6, 72 h
[39] = system: MONO-MAC-6; test: Cytotoxicity against human MONO-MAC-6 cells after overnight incubation by MTT assay; format: functional, cell-based
[40] = system: HepG2; test: Cytotoxicity against human HepG2 cells after overnight incubation by MTT assay; format: cell-based
[41] = Selectivity index, ratio of IC50 for human HepG2 cells to MIC for Mycobacterium tuberculosis H37Rv 331/88; format: toxicity; conditions: read-out: Selectivity Index
[42] = Cytotoxicity against mouse bone marrow macrophages after overnight incubation by MTT assay; conditions: BMDM

| SMILES | MIC [3] | MIC [4] | MIC [5] | MIC [6] | MIC [7] | MIC [9] | MIC [11] | MIC [14] | MIC [15] | MIC [17] | MIC [18] | MIC [19] | MIC [23] | MIC [24] | MIC [25] | MIC [29] | MIC [30] | MIC [34] | solubility [36] | further results |
| --- | --- | --- | --- | --- | --- | --- | --- | --- | --- | --- | --- | --- | --- | --- | --- | --- | --- | --- | --- | --- |
| O=C(N/N=C/c1ccc(O)cc1)c1ccc(C(F)(F)F)cc1 | 125 µM (≈ 38.5 µg/mL) | 125 µM (≈ 38.5 µg/mL) | > 125 µM | > 125 µM | > 125 µM | > 125 µM | 500 µM (≈ 154 µg/mL) | > 125 µM | 250 µM (≈ 77.1 µg/mL) | 500 µM (≈ 154 µg/mL) | 500 µM (≈ 154 µg/mL) | 250 µM (≈ 77.1 µg/mL) | 125 µM (≈ 38.5 µg/mL) | 125 µM (≈ 38.5 µg/mL) | > 125 µM | > 125 µM | 62.5 µM (≈ 19.3 µg/mL) | > 125 µM |  | Activity [1]: inactive; MIC [2]: 250 µM (≈ 77.1 µg/mL); MIC [8]: 250 µM (≈ 77.1 µg/mL); Activity [10]: inactive; MIC [12]: > 250 µM; MIC [13]: 125 µM (≈ 38.5 µg/mL); MIC [16]: 250 µM (≈ 77.1 µg/mL); Activity [20]: inactive; Activity [21]: inactive; Activity [22]: inactive; MIC [26]: 250 µM (≈ 77.1 µg/mL); MIC [27]: 125 µM (≈ 38.5 µg/mL); Activity [28]: inactive; MIC [31]: > 250 µM; Activity [32]: inactive; MIC [33]: > 250 µM; MIC [35]: > 250 µM |
| CC12CCC(C/C1=N\NC(=O)c1ccc(C(F)(F)F)cc1)C2(C)C (stereo unspecified) | 4 µM (≈ 1.35 µg/mL) | > 250 µM |  |  |  |  | > 250 µM |  | > 250 µM | > 250 µM | > 250 µM | > 250 µM | > 250 µM | 4 µM (≈ 1.35 µg/mL) |  |  | > 250 µM |  | Insoluble | IC50 [37]: > 100 µM; IC50 [38]: > 100 µM; IC50 [39]: > 100 µM; IC50 [40]: > 100 µM; selectivity ratio [41]: > 25; IC50 [42]: > 100 µM |
| NNC(=O)c1ccncc1 [ISONIAZID] | 1 µM (≈ 0.137 µg/mL) | > 250 µM |  |  |  |  | 8 µM (≈ 1.1 µg/mL) |  | 8 µM (≈ 1.1 µg/mL) | > 250 µM | 8 µM (≈ 1.1 µg/mL) | > 250 µM | > 250 µM | 0.5 µM (≈ 0.0686 µg/mL) |  |  | > 250 µM |  |  |  |
| O=C(N/N=C/c1ccc(Br)cc1)c1ccc(C(F)(F)F)cc1 |  |  |  |  |  |  |  |  |  |  |  |  |  |  |  |  |  |  | Insoluble |  |
| OC(Cn1cncn1)(Cn1cncn1)c1ccc(F)cc1F [FLUCONAZOLE] |  |  | 125 µM (≈ 38.3 µg/mL) | 7.81 µM (≈ 2.39 µg/mL) | 31.2 µM (≈ 9.57 µg/mL) | 250 µM (≈ 76.6 µg/mL) |  | > 500 µM |  |  |  |  |  |  | > 500 µM | 125 µM (≈ 38.3 µg/mL) |  | 500 µM (≈ 153 µg/mL) |  |  |
| O=C(NN=C1CCCC1)c1ccc(C(F)(F)F)cc1 | 500 µM (≈ 135 µg/mL) | > 1000 µM |  |  |  |  | 1000 µM (≈ 270 µg/mL) |  | 500 µM (≈ 135 µg/mL) | > 125 µM | 1000 µM (≈ 270 µg/mL) | > 125 µM | > 1000 µM | 500 µM (≈ 135 µg/mL) |  |  | 500 µM (≈ 135 µg/mL) |  |  |  |

From ChEMBL document CHEMBL4177650, “Synthesis and biological evolution of hydrazones derived from 4-(trifluoromethyl)benzohydrazide” (Bioorg Med Chem Lett, 2017)
